From the supplement of paper PMC10307832

Columns and labels:
Assay in all cases: relative viability (nuclei count vs DMSO), 5 days (fraction); higher = more cells survive
VX-11e + OSI-027 = compound: CC1=CN=C(N=C1C2=CNC(=C2)C(=O)N[C@H](CO)C3=CC(=CC=C3)Cl)NC4=C(C=C(C=C4)F)Cl [VX-11e] + COc1cccc2cc(-c3nc([C@H]4CC[C@H](C(=O)O)CC4)n4ncnc(N)c34)[nH]c12 [OSI-027] (partner 0.5 µM)
In short: (§1)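 A single step with final 0.05% Triton X-100, 1% formaldehyde and 1 ug/ml Hoechst fixed the cells and stained nuclei 5 days after treatment. Lung cancer cell lines in 1536-well plates had been treated by pin tool the day after seeding with one drug alone or a fixed anchor-drug dose plus five library-drug doses (not always all listed) in √10 steps, and nuclei were counted on 4× images. Relative viability is the ratio of nuclei in treated wells to nuclei in vehicle wells, taken as the median of duplicate plates.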

VX-11e + Linsitinib = compound: CC1=CN=C(N=C1C2=CNC(=C2)C(=O)N[C@H](CO)C3=CC(=CC=C3)Cl)NC4=C(C=C(C=C4)F)Cl [VX-11e] + C[C@]1(O)C[C@@H](c2nc(-c3ccc4ccc(-c5ccccc5)nc4c3)c3c(N)nccn32)C1 [Linsitinib] (partner 1 µM)
In short: as §1

VX-11e + Alpelisib = compound: CC1=CN=C(N=C1C2=CNC(=C2)C(=O)N[C@H](CO)C3=CC(=CC=C3)Cl)NC4=C(C=C(C=C4)F)Cl [VX-11e] + Cc1nc(NC(=O)N2CCC[C@H]2C(N)=O)sc1-c1ccnc(C(C)(C)C(F)(F)F)c1 [Alpelisib] (partner 2 µM)
In short: as §1

VX-11e + Lapatinib = compound: CC1=CN=C(N=C1C2=CNC(=C2)C(=O)N[C@H](CO)C3=CC(=CC=C3)Cl)NC4=C(C=C(C=C4)F)Cl [VX-11e] + CS(=O)(=O)CCNCc1ccc(-c2ccc3ncnc(Nc4ccc(OCc5cccc(F)c5)c(Cl)c4)c3c2)o1 [Lapatinib] (partner 2 µM)
In short: as §1

Cell Line	relative viability (VX-11e + OSI-027; first compound 0.04 µM)	relative viability (VX-11e + OSI-027; first compound 0.1265 µM)	relative viability (VX-11e + OSI-027; first compound 0.4 µM)	relative viability (VX-11e + OSI-027; first compound 1.265 µM)	relative viability (VX-11e + OSI-027; first compound 4 µM)	relative viability (VX-11e + Linsitinib; first compound 0.04 µM)	relative viability (VX-11e + Linsitinib; first compound 0.1265 µM)	relative viability (VX-11e + Linsitinib; first compound 0.4 µM)	relative viability (VX-11e + Linsitinib; first compound 1.265 µM)	relative viability (VX-11e + Linsitinib; first compound 4 µM)	relative viability (VX-11e + Alpelisib; first compound 0.04 µM)	relative viability (VX-11e + Alpelisib; first compound 0.1265 µM)	relative viability (VX-11e + Alpelisib; first compound 0.4 µM)	relative viability (VX-11e + Alpelisib; first compound 1.265 µM)	relative viability (VX-11e + Alpelisib; first compound 4 µM)	relative viability (VX-11e + Lapatinib; first compound 0.04 µM)	relative viability (VX-11e + Lapatinib; first compound 0.1265 µM)	relative viability (VX-11e + Lapatinib; first compound 0.4 µM)	relative viability (VX-11e + Lapatinib; first compound 1.265 µM)	relative viability (VX-11e + Lapatinib; first compound 4 µM)
NCI-H1734	0.566	0.459	0.472	0.348	0.227	0.797	0.789	0.814	0.837	0.536	0.689	0.691	0.648	0.674	0.41	0.808	1.05	0.745	0.805	0.46
NCI-H1755	0.665	0.527	0.4	0.756	0.468	1.03	0.976	0.95	0.94	0.553	0.962	0.885	0.882	0.931	0.497	1.05	0.97	0.833	0.93	0.771
NCI-H1792	0.733	0.581	0.524	0.634	0.208	0.706	0.488	0.681	0.484	0.137	0.799	0.631	0.649	0.628	0.202	0.889	0.91	1	0.86	0.755
NCI-H1793	0.247	0.194		0.251	0.134		0.687		0.818	0.514		0.519		0.539	0.301		0.611		0.397	0.278
NCI-H1915	0.573	0.439	0.254	0.338	0.213	1.21	1.12	1.19	1.04	0.857	1.08	0.973	1.08	0.978	0.652	0.981	0.92	0.984	0.976	0.808
NCI-H1944	0.342	0.343		0.309	0.259	1.08	1.09	0.998	0.862	0.552	0.843	0.809	0.785	0.557	0.399	0.748	0.733	0.621	0.647	0.586
NCI-H1975	0.695	0.499	0.291	0.415	0.162	0.841	1.09	0.991	0.959	0.367	0.649	0.639	0.591	0.508	0.191	0.925	0.862	0.665	0.811	0.342
NCI-H1993	0.556	0.538	0.557	0.605	0.677		0.757		0.769	0.666		0.673		0.618	0.649		0.818		0.73	0.727
NCI-H2009	0.637	0.665	0.559	0.226	0.168	1.17	1.11	1.18	1.09	0.259	1.2	1.1	1.07	0.571	0.285	0.944	0.891	0.729	0.265	0.438
NCI-H2023	0.332	0.349	0.139	0.183	0.114	0.727	0.692	0.596	0.362	0.283	0.59	0.611	0.572	0.458	0.257	0.72	0.874	0.1	0.387	0.303
NCI-H2085	0.625	0.695	0.517	0.322	0.251	0.987	0.818	0.834	0.9	0.649	1.11	0.88	0.913	0.842	0.699	0.596	0.765	0.73	0.647	0.608
NCI-H2087	0.357	0.448		0.319	0.145	0.949	1.1	0.902	0.803	0.302	1.09	1.06	0.946	0.983	0.276	1.23	0.867	0.42	0.979	0.295
NCI-H2126	0.533	0.816	0.315	0.448	0.541		0.735	0.689	0.677	0.556		0.755	0.747	0.68	0.578		0.752	0.752	0.742	0.599
NCI-H2228	0.617	0.54		0.216	0.123	0.577	0.692	0.489	0.308	0.214	0.631	0.922	0.715	0.548	0.232	1.23	1.17	0.158	0.691	0.309
NCI-H2347	0.418	0.467	0.337	0.255	0.21	1.07	0.927	0.798	0.7	0.496	1.15	0.991	1	0.618	0.379	1.05	0.878	0.809	0.809	0.453
NCI-H2405	0.587	0.599	0.375	0.768	0.37	0.933	0.787		0.817	0.272	0.857	0.726		0.602	0.209	1.07	1.01		1.05	0.349
NCI-H3122	0.892	0.898		0.513	0.147	0.971	1.01	0.974	0.929	0.58	0.652	0.753	0.566	0.672	0.329	1.07	0.98	0.855	0.892	0.626
